From ChEMBL document CHEMBL1137656, “Effects of serum on in vitro susceptibility testing of echinocandins” (Antimicrob Agents Chemother, 2007)
Numbered stars: 1 amine (or outer) side, 2 acyl side, 3 side chain; on linkers, the order of the positions; unused ones are H or OH. Bridge positions count the residues as written; N and C are the ends. Square brackets hold non-standard residues; d marks the D form. Peptide text beside a SMILES is read from it. * marks the point of attachment. hTyr(3S-OH,4S-OH,3'-OSO3H) = N[C@H](C(=O)O)[C@H](O)[C@@H](O)c1ccc(O)c(OS(=O)(=O)O)c1; pTerphenylCO(4''-OnC5H11) = CCCCCOc1ccc(-c2ccc(-c3ccc(C(=O)*)cc3)cc2)cc1; Orn(4R-OH,5R-OH) = O=C([C@H](C[C@@H](O)[C@@H](O)N[*:3])N[*:1])[*:2]; hTyr(3S-OH,4S-OH) = N[C@H](C(=O)O)[C@H](O)[C@@H](O)c1ccc(O)cc1; Pro(3S-OH,4S-Me) = C[C@H]1CN[C@H](C(=O)O)[C@H]1O; X1 = CCCCCOc1ccc(-c2cc(-c3ccc(C(=O)*)cc3)no2)cc1; Gln(3R-OH) = NC(=O)C[C@@H](O)[C@H](N)C(=O)O; Hyp = O=C(O)[C@@H]1C[C@@H](O)CN1

What was measured:
Aspergillus terreus = experiment: Antifungal activity against Aspergillus terreus isolate 0031-087 after 48 hrs by CLSI M38-A broth microdilution method in presence of RPMI 1640 medium; assay type: functional; conditions: isolate 0031-087, 48 h
Aspergillus fumigatus = experiment: Antifungal activity against Aspergillus fumigatus isolate 0002-0016 after 24 hrs by CLSI M38-A broth microdilution method in presence of 50% human serum; assay type: functional; conditions: isolate 0002-0016, 24 h
Aspergillus niger [1] = experiment: Antifungal activity against Aspergillus niger isolate 0001-073 after 24 hrs by CLSI M38-A broth microdilution method in presence of 50% human serum; assay type: functional; conditions: isolate 0001-073, 24 h
Aspergillus flavus = experiment: Antifungal activity against Aspergillus flavus isolate 0001-061 after 24 hrs by CLSI M38-A broth microdilution method in presence of 50% human serum; assay type: functional; conditions: isolate 0001-061, 24 h
Candida albicans = experiment: Antifungal activity against Candida albicans isolate 0012-025 after 24 hrs by CLSI M27-A2 broth microdilution method in presence of 50% human serum; assay type: functional; conditions: isolate 0012-025, 24 h
Clavispora lusitaniae = experiment: Antifungal activity against Candida lusitaniae isolate 0015-049 after 24 hrs by CLSI M27-A2 broth microdilution method in presence of RPMI 1640 medium; assay type: functional; conditions: isolate 0015-049, 24 h
Candida tropicalis = experiment: Ratio of MIC50 for Candida tropicalis isolate 0050-028 in presence of 50% human serum to MIC50 for Candida tropicalis isolate 0050-028 in presence of RPMI 1640 medium; assay type: functional
Aspergillus niger [2] = experiment: Antifungal activity against Aspergillus niger isolate 0001-073 after 24 hrs by CLSI M38-A broth microdilution method in presence of RPMI 1640 medium; assay type: functional; conditions: isolate 0001-073, 24 h
[3] = Protein binding in mouse serum at 1 to 1000 ug/mL by scintillation counting; assay type: ADME, cell-free; conditions: read-out: PB (converted)
[4] = Protein binding in human serum at 1 to 1000 ug/mL by scintillation counting; assay type: ADME, cell-free; conditions: read-out: PB (converted)

| MIC50 (Aspergillus terreus) [µg/mL] | MIC50 (Aspergillus fumigatus) [µg/mL] | MIC50 (Aspergillus niger [1]) [µg/mL] | MIC50 (Aspergillus flavus) [µg/mL] | MIC50 (Candida albicans) [µg/mL] | MIC50 (Clavispora lusitaniae) [µg/mL] | MIC50 (Aspergillus niger [2]) [µg/mL] | fraction unbound [3] | fraction unbound [4] | SMILES | Ratio (Candida tropicalis) |
| --- | --- | --- | --- | --- | --- | --- | --- | --- | --- | --- |
| 0.002 | 2 | 0.25 | 128 | 1 | 0.0156 | 0.002 | – | – | CCCCCOc1ccc(-c2cc(-c3ccc(C(=O)N[C@H]4C[C@@H](O)[C@@H](O)NC(=O)[C@@H]5[C@@H](O)[C@@H](C)CN5C(=O)[C@H]([C@H](O)CC(N)=O)NC(=O)[C@H]([C@H](O)[C@@H](O)c5ccc(O)c(OS(=O)(=O)O)c5)NC(=O)[C@@H]5C[C@@H](O)CN5C(=O)[C@H]([C@@H](C)O)NC4=O)cc3)no2)cc1 [MICAFUNGIN] (X1-[Orn(4R-OH,5R-OH)]T[Hyp][hTyr(3S-OH,4S-OH,3'-OSO3H)][Gln(3R-OH)][Pro(3S-OH,4S-Me)]; lactam 1-C) | 128 |
| 0.5 | 128 | 0.25 | 128 | 0.25 | 0.5 | 0.0004 | 0.04 | 0.04 | CC[C@H](C)C[C@H](C)CCCCCCCCC(=O)N[C@H]1C[C@@H](O)[C@@H](NCCN)NC(=O)[C@@H]2[C@@H](O)CCN2C(=O)[C@H]([C@H](O)CCN)NC(=O)[C@H]([C@H](O)[C@@H](O)c2ccc(O)cc2)NC(=O)[C@@H]2C[C@@H](O)CN2C(=O)[C@H]([C@@H](C)O)NC1=O [CASPOFUNGIN] | 4 |

| SMILES | MIC50 (Aspergillus terreus) [µg/mL] | MIC50 (Aspergillus fumigatus) [µg/mL] | MIC50 (Aspergillus niger [1]) [µg/mL] | MIC50 (Aspergillus flavus) [µg/mL] | MIC50 (Candida albicans) [µg/mL] | MIC50 (Clavispora lusitaniae) [µg/mL] | MIC50 (Aspergillus niger [2]) [µg/mL] | fraction unbound [3] | fraction unbound [4] | Ratio (Candida tropicalis) |
| --- | --- | --- | --- | --- | --- | --- | --- | --- | --- | --- |
| CCCCCOc1ccc(-c2ccc(-c3ccc(C(=O)N[C@H]4C[C@@H](O)[C@@H](O)NC(=O)[C@@H]5[C@@H](O)[C@@H](C)CN5C(=O)[C@H]([C@@H](C)O)NC(=O)[C@H]([C@H](O)[C@@H](O)c5ccc(O)cc5)NC(=O)[C@@H]5C[C@@H](O)CN5C(=O)[C@H]([C@@H](C)O)NC4=O)cc3)cc2)cc1 [ANIDULAFUNGIN] ({pTerphenylCO(4''-OnC5H11)}-[Orn(4R-OH,5R-OH)]T[Hyp][hTyr(3S-OH,4S-OH)]T[Pro(3S-OH,4S-Me)]; lactam 1-C) | 0.0156 | 128 | 0.5 | 128 | 0.25 | 0.125 | 0.001 | – | – | 128 |
